# Test results from patent publication US9140689B2, “Methods of determining susceptibility of tumors to tyrosine kinase inhibitors” (Translational Genomics Research Institute, priority 2010, dated 2015).
# Legend:
# Type in all cases: cell-based, murine
# [1] = system: BaF3/FGFR2b wildtype cells; assay: BaF3/FGFR2b cell viability (ViaLight assay), wildtype; settings: Mus musculus, BaF3, 72 h, read-out: IC50 value in BaF3/FGFR2b wildtype
# Protocol: (§1) The BaF3 cell line is an IL-3 dependent murine pro-B cell line that is commonly employed to model TKI resistant mutations. BaF3 cells are made dependent on a specific oncogenic tyrosine kinase, and are cultured in the presence of a kinase inhibitor against that specific kinase, and resistant colonies can be screened for drug resistant mutations. This approach effectively reproduced the pattern and relative abundance of Bcr-Abl mutations seen clinically in imatinib-resistant patients (Von Bubnoff, N. et al, Blood. 2005 105:1652-1659)
# (§2) BaF3/FGFR2b wildtype and N550K mutation variant cells were plated at a density of 10,000 cells/well in a 96-well plate. […] (Selleck Chemicals) or PD173074 (Calbiochem) was added in half-log dilutions in the absence of IL3 and in the presence of 1 nM FGF10 and 5 μg/mL heparin. After 72 hours, cell viability was measured using the ViaLight assay from Lonza (Visp, CH). The IC50 values shown in FIG. 1 were normalized to DMSO control and data were analyzed with Prism software. […].
# [2] = system: BaF3/FGFR2b N550K mutation variant cells; assay: BaF3/FGFR2b cell viability (ViaLight assay), N550K variant
# Protocol: as §1, §2
# [3] = system: BaF3/FGFR2b E719G mutation variant cells; assay: BaF3/FGFR2b TKI resistance test, E719G variant alone
# Description: Genomic DNA was isolated from the BaF3.FGFR2b colonies selected in the […]-resistance screen. Exons encoding the intracellular domain of FGFR2b were amplified and sequencing performed in two directions. Mutations in the intracellular domain of FGFR2b were identified in 26 of the 63 (41%) […] resistant BaF3.FGFR2b clones. Among the 26 FGFR2b mutations, eleven different mutation variants were detected (Table 1). The eleven different mutation variants are: M536I, M538I, I548V, N550H, N550K, N550S, V565I, E566G, L618M, E719G, and Y770IfsX14. The most commonly mutated codon was N550, with mutations occurring in 19 of the 26 (73%) resistant clones. In addition, E719G mutation variant was identified in a clone with a N550H mutation; […]. Similar tests were performed with the other 10 FGFR2b mutation variants. The majority of the mutations identified in this drug resistance screen result in activation of FGFR2. […]. The FGFR2 mutations resistance to another TKI PD173074 were also tested. […] The receptor activation of FGFR2 mutants and wildtype were measured and compared in the presence of FGF ligand. […]
structure (smiles),measurement,setting,value
CCN(CC)CCCCNc1ncc2cc(-c3cc(OC)cc(OC)c3)c(NC(=O)NC(C)(C)C)nc2n1 [PD173074],IC50,[1],4.5 nM
same,"fold difference of IC50, N550K versus wildtype",[2]; BaF3/FGFR2b N550K vs wildtype,over 170 fold
same,IC50,"[2]; Mus musculus, BaF3, 72 h, read-out: IC50 value in N550K resistance cells",776 nM
same,resistance conferred by E719G mutation alone,[3],did not induce resistance
